Converted amounts (≈) assume the structure as drawn. The source made the active and inactive calls. No cut-off for these calls is given here.
Columns and labels:
Androgen receptor [1] = molecular target: T1, Androgen receptor (Homo sapiens, UniProt P10275); test: Inhibition of androgen receptor-mediated cellular downregulation in human LNCAP cells assessed as decrease in nuclear receptor level after 20 to 22 hrs by laser-scanning fluorescence microplate cytometeric analysis; type: cell-based
T1 sequence (P10275 whole entry): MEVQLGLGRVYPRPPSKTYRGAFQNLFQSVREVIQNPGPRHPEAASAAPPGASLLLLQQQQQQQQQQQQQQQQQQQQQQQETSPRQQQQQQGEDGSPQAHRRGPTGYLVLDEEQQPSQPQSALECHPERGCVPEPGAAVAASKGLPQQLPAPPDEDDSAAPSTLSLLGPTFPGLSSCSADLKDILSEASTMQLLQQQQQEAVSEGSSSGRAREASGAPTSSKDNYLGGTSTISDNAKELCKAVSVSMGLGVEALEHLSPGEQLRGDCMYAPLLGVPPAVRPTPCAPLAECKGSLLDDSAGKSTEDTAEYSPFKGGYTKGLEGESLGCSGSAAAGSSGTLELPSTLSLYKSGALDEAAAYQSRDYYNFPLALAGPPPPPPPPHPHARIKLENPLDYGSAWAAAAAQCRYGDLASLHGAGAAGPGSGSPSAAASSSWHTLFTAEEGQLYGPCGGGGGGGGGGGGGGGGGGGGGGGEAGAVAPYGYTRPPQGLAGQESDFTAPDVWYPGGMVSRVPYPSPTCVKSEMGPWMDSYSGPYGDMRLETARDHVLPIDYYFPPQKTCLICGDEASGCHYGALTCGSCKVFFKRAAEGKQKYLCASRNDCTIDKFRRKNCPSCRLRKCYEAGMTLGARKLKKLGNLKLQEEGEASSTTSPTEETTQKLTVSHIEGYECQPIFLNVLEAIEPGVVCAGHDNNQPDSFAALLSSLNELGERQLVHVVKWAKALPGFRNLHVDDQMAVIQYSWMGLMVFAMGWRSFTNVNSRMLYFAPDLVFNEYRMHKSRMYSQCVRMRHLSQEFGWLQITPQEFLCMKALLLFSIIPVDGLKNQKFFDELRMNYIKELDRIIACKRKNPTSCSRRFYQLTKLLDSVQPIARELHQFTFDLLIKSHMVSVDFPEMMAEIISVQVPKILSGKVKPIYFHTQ

[2] = Oral bioavailability in beagle dog at 10 umol/kg; type: ADME, organism-based, Canis lupus familiaris; details: in vivo
[3] = Clearance in beagle dog at 2 umol/kg, iv and 10 umol/kg, po; type: ADME, organism-based, Canis lupus familiaris; details: in vivo
physchem = details: phosphate buffer
Rattus norvegicus [4] = test: Antiandrogenic activity in immature castrated Hershberger rat model assessed as inhibition of testosterone propionate-induced seminal vesicle growth at 50 to 100 mg/kg, po bid for 7 days; type: functional, organism-based
[5] = Lipophilicity, log D of the compound at pH 7.4; details: buffer
[6] = molecular target: Voltage-gated inwardly rectifying potassium channel KCNH2 (Homo sapiens, UniProt Q12809); test: Inhibition of human ERG by IonWorks assay
[7] = Clearance in Han Wistar rat at 4 umol/kg, iv and 5 umol/kg, po; type: ADME, organism-based; details: in vivo
[8] = Volume of distribution at steady state in Han Wistar rat at 4 umol/kg, iv and 5 umol/kg, po; type: ADME, organism-based; details: in vivo, read-out: Vdss
[9] = Fraction unbound in human plasma by equilibrium dialysis method; type: ADME, cell-free
[10] = Fraction unbound in Han Wistar rat plasma by equilibrium dialysis method; type: ADME, cell-free
[11] = Oral bioavailability in Han Wistar rat at 5 umol/kg; type: ADME, organism-based; details: in vivo
Androgen receptor [12] = molecular target: T2, Androgen receptor (Rattus norvegicus, UniProt P15207); test: Binding affinity to rat androgen receptor ligand binding domain by fluorescence polarization assay
T2 sequence (P15207 whole entry): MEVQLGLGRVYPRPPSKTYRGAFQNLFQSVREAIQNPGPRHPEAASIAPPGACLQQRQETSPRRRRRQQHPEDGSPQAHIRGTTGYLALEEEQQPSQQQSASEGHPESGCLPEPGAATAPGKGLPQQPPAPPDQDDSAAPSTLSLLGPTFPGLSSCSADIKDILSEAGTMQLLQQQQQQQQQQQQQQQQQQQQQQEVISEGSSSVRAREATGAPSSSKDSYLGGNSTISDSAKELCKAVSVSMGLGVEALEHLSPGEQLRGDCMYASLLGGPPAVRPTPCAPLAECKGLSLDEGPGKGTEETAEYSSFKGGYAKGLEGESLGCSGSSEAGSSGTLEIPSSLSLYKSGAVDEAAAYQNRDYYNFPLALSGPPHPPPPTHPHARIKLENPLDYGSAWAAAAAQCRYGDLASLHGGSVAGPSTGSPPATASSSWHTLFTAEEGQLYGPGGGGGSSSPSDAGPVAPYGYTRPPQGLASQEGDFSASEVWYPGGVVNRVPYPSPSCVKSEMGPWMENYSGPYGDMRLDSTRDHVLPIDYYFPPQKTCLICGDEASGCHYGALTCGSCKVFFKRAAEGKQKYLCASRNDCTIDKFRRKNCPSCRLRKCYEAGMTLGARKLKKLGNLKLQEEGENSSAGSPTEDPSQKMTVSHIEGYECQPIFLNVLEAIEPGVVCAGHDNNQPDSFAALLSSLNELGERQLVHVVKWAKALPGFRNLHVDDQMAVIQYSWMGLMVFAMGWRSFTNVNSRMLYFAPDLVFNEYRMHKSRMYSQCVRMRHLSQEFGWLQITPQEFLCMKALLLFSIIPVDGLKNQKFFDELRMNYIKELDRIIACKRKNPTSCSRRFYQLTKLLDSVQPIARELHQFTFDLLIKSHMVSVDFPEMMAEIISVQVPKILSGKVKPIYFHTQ

[13] = Volume of distribution at steady state in beagle dog at 2 umol/kg, iv and 10 umol/kg, po; type: ADME, organism-based, Canis lupus familiaris; details: in vivo, read-out: Vdss
Androgen receptor [14] = molecular target: T1, Androgen receptor; test: Displacement of [3H]R1881 from full length androgen receptor in human LNCAP cells; type: cell-based
[15] = Intrinsic clearance in human hepatocytes measured per 10^6 cells
[16] = Clearance in Han Wistar rat at 3 umol/kg, iv and 10 umol/kg, po; type: ADME, organism-based; details: in vivo
[17] = Oral bioavailability in Han Wistar rat at 10 umol/kg; type: ADME, organism-based; details: in vivo
[18] = Volume of distribution at steady state in Han Wistar rat at 3 umol/kg, iv and 10 umol/kg, po; type: ADME, organism-based; details: in vivo, read-out: Vdss
[19] = Clearance in Han Wistar rat at 20 umol/kg, iv and 50 umol/kg, po; type: ADME, organism-based; details: in vivo
[20] = Oral bioavailability in Han Wistar rat at 50 umol/kg; type: ADME, organism-based; details: in vivo
[21] = Volume of distribution at steady state in Han Wistar rat at 20 umol/kg, iv and 50 umol/kg, po; type: ADME, organism-based; details: in vivo, read-out: Vdss
Rattus norvegicus [22] = test: Antiandrogenic activity in immature castrated Hershberger rat model assessed as inhibition of testosterone propionate-induced seminal vesicle growth at 2 mg/kg, po bid for 7 days; type: functional, organism-based; design: dose 2 mg/kg

Chain of Voltage-gated inwardly rectifying potassium channel KCNH2 (Q12809 whole entry): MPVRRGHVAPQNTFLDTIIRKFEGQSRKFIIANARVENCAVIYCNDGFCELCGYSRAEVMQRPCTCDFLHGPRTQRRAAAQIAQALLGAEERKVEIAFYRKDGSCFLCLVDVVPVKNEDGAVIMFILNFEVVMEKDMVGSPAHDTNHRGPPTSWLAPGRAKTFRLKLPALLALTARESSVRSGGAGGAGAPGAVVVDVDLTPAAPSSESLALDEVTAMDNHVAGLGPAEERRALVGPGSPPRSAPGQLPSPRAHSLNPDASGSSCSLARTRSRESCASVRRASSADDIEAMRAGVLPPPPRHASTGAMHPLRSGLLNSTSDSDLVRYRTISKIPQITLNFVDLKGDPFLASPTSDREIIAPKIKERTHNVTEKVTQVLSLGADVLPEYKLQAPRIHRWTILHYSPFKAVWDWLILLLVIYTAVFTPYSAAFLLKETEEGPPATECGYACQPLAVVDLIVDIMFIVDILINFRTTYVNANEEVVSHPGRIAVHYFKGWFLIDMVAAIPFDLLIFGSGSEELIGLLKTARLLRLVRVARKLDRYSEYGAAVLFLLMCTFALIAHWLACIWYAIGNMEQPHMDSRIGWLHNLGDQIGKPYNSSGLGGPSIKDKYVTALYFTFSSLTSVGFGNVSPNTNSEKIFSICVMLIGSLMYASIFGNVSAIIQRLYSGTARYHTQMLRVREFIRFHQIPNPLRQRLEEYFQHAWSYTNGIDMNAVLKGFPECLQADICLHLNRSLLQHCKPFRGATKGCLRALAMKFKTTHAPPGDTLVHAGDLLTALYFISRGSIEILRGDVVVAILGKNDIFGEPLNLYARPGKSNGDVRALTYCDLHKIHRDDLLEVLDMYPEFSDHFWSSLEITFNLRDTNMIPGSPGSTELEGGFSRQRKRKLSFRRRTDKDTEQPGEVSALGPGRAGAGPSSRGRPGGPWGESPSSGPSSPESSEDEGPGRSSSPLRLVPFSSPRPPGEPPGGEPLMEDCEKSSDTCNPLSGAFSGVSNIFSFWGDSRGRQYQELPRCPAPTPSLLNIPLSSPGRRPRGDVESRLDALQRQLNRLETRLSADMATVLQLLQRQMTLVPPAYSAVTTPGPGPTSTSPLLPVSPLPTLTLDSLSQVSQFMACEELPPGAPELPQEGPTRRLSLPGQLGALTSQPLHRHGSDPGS

Compound	IC50 (Androgen receptor [1])	solubility thermodynamic at 24 h (physchem)	logD [5]	IC50 [6]	fraction unbound [9]	fraction unbound [10]	hepatocyte CLint [15]	further results
CC(=O)N1CCN(CCOc2ccc(C3CCN(C4=Nn5c(nnc5C(F)(F)F)CC4)CC3)cc2)CC1 [AZD3514]	1.78 µM	577 µM (≈ 300 µg/mL)	2.5	> 100 µM	0.12	0.094	< 3 µL/min/1e6 cells	bioavailability [2]: > 75%; clearance [3]: 12 mL/min/kg; growth inhibition (GI) (Rattus norvegicus [4]): Active; clearance [7]: 6.6 mL/min/kg; Vd [8]: 2.1 L/kg; bioavailability [11]: 74%; Ki (Androgen receptor [12]): 5 µM; Vd [13]: 3.2 L/kg; Ki (Androgen receptor [14]): 2.2 µM
Fc1ccc(CN2CCN(C3=Nn4c(nnc4C(F)(F)F)CC3)CC2)cc1	5.89 µM	520 µM (≈ 199 µg/mL)	2.8	29.5 µM	0.12	0.13	3.7 µL/min/1e6 cells	
Cn1nccc1CCOc1ccc(C2CCN(c3ccc4nnc(C(F)(F)F)n4n3)CC2)cc1	0.234 µM	< 0.73 µM	> 4.3	17.8 µM	0.0016	0.0021	12 µL/min/1e6 cells	bioavailability [2]: 18%; clearance [3]: 9.2 mL/min/kg; clearance [16]: 22 mL/min/kg; bioavailability [17]: 43%; growth inhibition (GI) (Rattus norvegicus [4]): Active; Vd [13]: 2.7 L/kg; Vd [18]: 2.3 L/kg
OC1(c2cccnc2)CCN(c2ccc3nnc(C(F)(F)F)n3n2)CC1	10.7 µM	100 µM (≈ 36.4 µg/mL)	2.1	95.5 µM	0.26	0.34	< 3 µL/min/1e6 cells	clearance [19]: 38 mL/min/kg; bioavailability [2]: > 75%; clearance [3]: 18 mL/min/kg; growth inhibition (GI) (Rattus norvegicus [4]): Active; bioavailability [20]: > 75%; Vd [13]: 1.3 L/kg; Vd [21]: 5.7 L/kg
Fc1cccc(CN2CCN(c3ccc4nnc(C(F)(F)F)n4n3)CC2)c1F	2.09 µM			> 100 µM	0.017	0.018	22 µL/min/1e6 cells	
CC(=O)N1CCN(CCOc2ccc(C3(O)CCN(c4ccc5nnc(C(F)(F)F)n5n4)CC3)cc2)CC1		190 µM (≈ 101 µg/mL)	2.2	> 100 µM	0.17	0.064		
Fc1ccc(CN2CCN(c3ccc4nnc(C(F)(F)F)n4n3)CC2)cc1					0.02	0.034	52 µL/min/1e6 cells	
N#Cc1ccc(CN2CCN(c3ccc4nnc(C(F)(F)F)n4n3)CC2)cc1	1.51 µM	8.4 µM (≈ 3.25 µg/mL)	2.9		0.044	0.092	< 3 µL/min/1e6 cells	
OC1(c2ccc(F)cc2)CCN(c2ccc3nnc(C(F)(F)F)n3n2)CC1					0.04	0.036	< 3 µL/min/1e6 cells	
CC(O)(CS(=O)(=O)c1ccc(F)cc1)C(=O)Nc1ccc(C#N)c(C(F)(F)F)c1 (centres undefined)								growth inhibition (GI) (Rattus norvegicus [22]): Active
CC(=O)N1CCN(CCOc2ccc(C3CCN(c4ccc5nnc(C(F)(F)F)n5n4)CC3)cc2)CC1	0.324 µM			11.2 µM	0.027	0.012	12 µL/min/1e6 cells	

From ChEMBL document CHEMBL2346572, “Discovery of AZD3514, a small-molecule androgen receptor downregulator for treatment of advanced prostate cancer” (Bioorg Med Chem Lett, 2013)
